The subject of assay [1] is tPA-deficient fibroblasts. In words: WST-1 growth assay of primary fibroblasts in serum-free medium. To be noted: 50 ng/ml added to serum-free culture medium, 24 hours. Format: cell-based, mouse. The protocol: It was observed that primary fibroblasts derived from tPA-deficient mice grew more slowly in culture than fibroblasts derived from wild-type animals, raising the possibility that activation of latent PDGF-CC by tPA generated autocrine and paracrine growth stimulatory loops for primary fibroblasts in culture. To analyze this effect, isolated wild-type and tPA-deficient fibroblasts were serum-starved overnight, and the growth of the cells during the next 24 hours was monitored using an enzyme-based viability assay (see Example 8, Materials and Methods).
(§1) To monitor cell growth, both the cell proliferation reagent WST-1 (Roche) and BrdU (Sigma) were used. A total of 0.4×10^4 (WST-1) or 1×10^4 (BrdU) wild-type and tPA-deficient fibroblasts were seeded in triplicate-hexaplicate, and after attachment they were serum-starved overnight. Serum-starved cells were counted (WST-1 seeding control) and alternatively incubated for 24 hours in serum-free medium supplemented with 1 mg/ml BSA, and 50 μM BrdU in the BrdU experiment, in the absence or presence of 50 ng/ml activated PDGF-CC or tPA protein (#116, American Diagnostica Inc.). Upon counting, WST-1 reagent was added and measured according to the manufacturer's protocol using an ELISA reader. […] Quantification of the BrdU-positive cells was performed by counting all cells along the vertical and horizontal diameters of all wells.

Assay [2] relates to wild-type and tPA-deficient fibroblasts. In words: BrdU incorporation in primary fibroblasts. The conditions noted are these: 50 ng/ml, 24 hours BrdU labeling. Format: cell-based, mouse. On the procedure:
Cell nuclei were visualized with 4′,6-diamidine-2′-phenylindole dihydrochloride (DAPI), and BrdU-labeled cells were determined by immunofluorescence using antibodies to BrdU (FIG. 7B).
as §1, with “reader. In the BrdU experiment, the cells were fixed in 4% paraformaldehyde in PBS for 30 min at room temperature and the DNA was denatured in 2M HCl for 20 min at room temperature and then blocked in 0.5% BSA, 0.5% Tween, and 10% goat serum in PBS.” for “reader.”

As to “tPA: tissue plasminogen activator, secreted serine protease; expressed, purified from human melanoma cells or recombinant”, the “rescue of growth of tPA-deficient fibroblasts” value in assay [1] is given as “allowed the cells to grow similar to the wild-type fibroblasts”. Further, in assay [2] (serum-starved tPA-deficient fibroblasts), the “BrdU incorporation in tPA-deficient cells” value was “strongly stimulated BrdU incorporation in the tPA-deficient cells”. The “BrdU incorporation in wild-type cells” value in assay [2] (serum-starved wild-type fibroblasts) is recorded as “had less effect on wild-type cells”.
